Values quoted from earlier work in patent US4123523A, “Analgesic and sedative polypeptides” (Imperial Chemical Industries Limited, priority 1976, dated 1978).

Tested on: cat
Conditions: injected directly into the third ventricle of the cat

β-endorphin: residues 61-91 of the naturally-occuring lipolytic polypeptide hormone lipotropin (YGGFMTSEKSQTPLVTLFKNAIIKNAYKKGE; Beta-endorphin; UniProt P01189 237-267, looked up)
analgesic properties: possesses analgesic properties
